Measured values as given in PMC5940834, “Discovery and functional characterisation of a luqin-type neuropeptide signalling system in a deuterostome” (Scientific Reports, 2018).
“Also recorded” adds a separate entry of the source. Where no end group is shown, it is not given here.

Key:
ArLQR2 = experiment: ArLQ/neuropeptide activation of ArLQR2, bioluminescence in CHO-ArLQR2 cells; type: cell-based, Asterias rubens; conditions: ArLQ 1 × 10^−4 to 1 × 10^−14 M, other neuropeptides 1 × 10^−4 to 1 × 10^−13 M
Source text: (§1) To enable pharmacological characterisation of ArLQR1 and ArLQR2, cDNAs encoding these receptors were amplified by PCR, using A. rubens radial nerve cord total cDNA, specific primers (see supplementary Table 1 for a list of the primers) and Q5 polymerase (NEB; Cat. No. M0491S). First, the receptor cDNAs were ligated into the phagemid vector pBluescript II SK + (Agilent Technologies; Cat. No. 212205) using a blunt-end ligation method. The vector was cut with the restriction enzyme EcoRV (NEB; Cat. No. R0195S) and the ligation was performed using T4 DNA ligase (NEB; Cat. No. M0202S). Successful ligation was confirmed by PCR, restriction enzyme digestion and sequencing (TubeSeq service; Eurofins Genomics). The receptor cDNAs were then sub-cloned into the eukaryotic expression vector pcDNA 3.1( + ) (Invitrogen; Cat. No. V790-20). To accomplish this, forward primers included the partial Kozak consensus sequence (ACC) and a sequence corresponding to the first 21 bases of the ArLQR1 or ArLQR2 ORFs, including the start codon. Reverse primers consisted of a stop codon and a sequence reverse complementary to the ORF encoding the C-terminal region of ArLQR1 or ArLQR2 (see supplementary Table 1 for a list of the primers). PCR was performed using Q5 polymerase NEB and the cDNA products were ligated into the pcDNA 3.1(+) vector that had been cut previously with the restriction enzyme EcoRV by performing blunt-end ligation with T4 DNA ligase NEB. The direction of the insert was determined by restriction enzyme digestion and sequencing. The ArLQR1 and ArLQR2 sequences have been deposited in the GenBank database under accession numbers MG744509 and MG744510 respectively.
(§2) To determine if ArLQ acts as a ligand for ArLQR1 and/or ArLQR2, the receptors were expressed in Chinese hamster ovary cells (CHO-K1) stably expressing the calcium-sensitive bioluminescent reporter GFP-aequorin fusion protein (G5A)[43]. CHO-K1 cells were maintained at 37 °C in T25 culture flasks (USA Scientific; Cat. No. CC7682-4325) containing 6 ml of DMEM/F12 Nutrient Mixture medium (Thermo Fisher Scientific; Cat. No. 11039047) supplemented with 10% fetal bovine serum (Thermo Fisher Scientific; Cat. No. 10082147), Antibiotic-Antimycotic 1 × (Thermo Fisher Scientific, Cat. No. 15240062) and 200 μg/ml of Geneticin G418 sulfate (Thermo Fisher Scientific, Cat. No. 10131035). Upon reaching a confluency of approximately 80%, cells were transfected with the plasmids containing ArLQR1 or ArLQR2 receptor cDNAs and a plasmid containing the promiscuous Gα-16 protein that can couple a wide range of GPCRs to the phospholipase C pathway. The transfection was achieved using 5 µg of each plasmid and 8 μl of the transfection reagent Lipofectamine 3000 following the manufacturer instructions (Thermo Fisher Scientific; Cat. No. L3000008). Two days post-transfection, the culture medium was removed and the cells detached by the addition of 2 ml of 1 × PBS buffer pH 7.4 (Thermo Fisher Scientific; Cat. No. 10010023) supplemented with UltraPure EDTA 0.5 M pH 8.0 (Thermo Fisher Scientific; Cat. No. 15575020) to a final concentration of 5 mM EDTA. […] Luminescence levels were recorded over a 35-second period using a FLUOstar Omega Plate Reader (BMG LABTECH; FLUOstar Omega Series multi-mode microplate reader). […]

ArLQR1 = experiment: ArLQ/neuropeptide activation of ArLQR1, bioluminescence in CHO-ArLQR1 cells; type: cell-based, Asterias rubens; conditions: ArLQ 1 × 10^−4 to 1 × 10^−14 M, other neuropeptides 1 × 10^−4 to 1 × 10^−13 M
Source text: as §1, §2

[1] = test system: cardiac stomach preparations; conditions: "all three of these preparations"; cited from earlier work
Protocol: Informed by findings from analysis of the expression of ArLQP in A. rubens (see results), synthetic ArLQ (custom synthesized by PPR Ltd, Fareham, UK) was tested on tube foot and cardiac stomach preparations from A. rubens. […] Tube foot preparations were obtained by dissecting from starfish arms a small square-shaped piece of ambulacral body wall containing a single tube foot stem and its associated ampulla. Co ...

tube foot preparations = conditions: A. rubens; cited from earlier work
Source text: Figure 6 ArLQ causes relaxation of in vitro preparations of tube feet from A. rubens. […] (B). […] Tube foot preparations were obtained by dissecting from starfish arms a small square-shaped piece of ambulacral body wall containing a single tube foot stem and its associated ampulla. Co ...

[2] = test system: neurons and muscles involved in feeding behaviour; conditions: Achatina fulica; cited from earlier work
Source text: (§3) Neuropeptides play a central role in the control of diverse physiological processes and behaviours in animals. Furthermore, neuropeptides are evolutionarily ancient mediators of neuronal signalling and a large number of different neuropeptide signalling pathways were already present in the common ancestor of protostomes and deuterostomes[1]–[3]. The discovery of neuropeptide signalling systems has been enabled by a variety of experimental strategies. The luqin-type neuropeptide system that is the focus of this study was first discovered using a molecular biological approach where the object ...

heart ventricle = conditions: Achatina fulica; cited from earlier work
Source text: as §3

auricle preparations = conditions: Lymnaea stagnalis; cited from earlier work
Source text: as §3

GRL106 = conditions: orphan G-protein coupled receptor; cited from earlier work
Source text: as §3

[3] = test system: receptor for the luqin-type peptide WRPGRFamide; conditions: cited from earlier work
Source text: as §3

Which results are given for “GGGVPHVFQSGGIF-NH2 [ArTK2, tachykinin-like peptide from A. rubens]”?
activation of ArLQR2 (in words) (ArLQR2): none of them caused activation of the receptors; activation of ArLQR2 (in words) (ArLQR2; listed as ArTKL): do not activate the receptors; activation of ArLQR1 (in words) (ArLQR1): none of them caused activation of the receptors; activation of ArLQR1 (in words) (ArLQR1; listed as ArTKL): do not activate the receptors

With SGPYSFNSGLTF-NH2 [S2] as the substance, how does the “relaxant effect on cardiac stomach and other preparations (earlier studies)” value [1] read?
Its value is “relaxant of all three of these preparations”.

And the “activation of ArLQR2 (in words)” value (ArLQR2)?
Its value is “do not activate the receptors”.

What about the “activation of ArLQR2 (in words)” value (ArLQR2; listed as SALMFamide-2) of the same substance?
The value was “none of them caused activation of the receptors”.

And the “relaxation of tube foot preparations (earlier studies)” value (tube foot preparations)?
Its value is “known tube foot relaxant; also recorded: causes relaxation of tube foot preparations; also recorded: relaxant of all three of these preparations”.

What about the “activation of ArLQR1 (in words)” value (ArLQR1) of the same substance?
The value was “do not activate the receptors”.

What about the “activation of ArLQR1 (in words)” value (ArLQR1; listed as SALMFamide-2) of the same substance?
Its value is “none of them caused activation of the receptors”.

With “SGQWRPQGRF-NH2 [ACEP-1, homolog of luqin (…amide) discovered in the snail Achatina fulica]” as the substance, how does the “effect on neurons and muscles involved in feeding behaviour” value [2] read?
Its value is “excitatory effects on neurons and muscles involved in feeding behaviour”.

And the “effect on beat of the heart ventricle” value (heart ventricle)?
Its value is “potentiating the beat of the heart ventricle”.

With “TPHWRPQGRF-NH2 [LyCEP, luqin-type peptide (…amide) discovered in the pond snail Lymnaea stagnalis]” as the substance, how does the “effect on beating frequency of auricle preparations” value (auricle preparations) read?
The value was “increases the beating frequency of auricle preparations”.

And the “receptor identified for the peptide (GRL106)” value (GRL106)?
Its value is “identified as the receptor for this peptide”.

Which “receptor identified for the peptide (P. dumerilii)” value [3] does the source give for “WRPGRF-NH2 [luqin-type peptide of the annelid Platynereis dumerilii]” here?
Its value is “has been identified in the annelid Platynereis dumerilii”.

With “pQDRSKAMQAERTGQLRRLNPRF-NH2 [ArNPY, Neuropeptide Y-type peptide from A. rubens]” as the substance, how does the “activation of ArLQR2 (in words)” value (ArLQR2) read?
The value was “do not activate the receptors; also recorded: none of them caused activation of the receptors”.

What about the “activation of ArLQR1 (in words)” value (ArLQR1) of the same substance?
The value was “do not activate the receptors; also recorded: none of them caused activation of the receptors”.
